From patent publication US11713470B2, “Targeted gene therapies for pain and other neuro-related disorders” (University of Pittsburgh—Of the Commonwealth System of …, priority 2017, dated 2023)
“Also recorded” adds a separate entry of the source.

Key:
PSAM-GlyR [1] = target: T1, PSAM-GlyR (Homo sapiens, UniProt P23415+P36544, L141F); test: Patch clamp electrophysiology in spinal cord slices of Tlx3^Cre mice injected with AAV8-Flex-PSAM-GlyR; type: tissue-based, mouse
T1 construct: plasmid from Addgene (Sternson); host or cells: mouse dorsal horn neurons transduced with Cre-dependent AAV2/8 (Tlx3^Cre, CCK^Cre or Calr^Cre mice)
T1 sequence (P36544+P23415 fused P36544:L141F): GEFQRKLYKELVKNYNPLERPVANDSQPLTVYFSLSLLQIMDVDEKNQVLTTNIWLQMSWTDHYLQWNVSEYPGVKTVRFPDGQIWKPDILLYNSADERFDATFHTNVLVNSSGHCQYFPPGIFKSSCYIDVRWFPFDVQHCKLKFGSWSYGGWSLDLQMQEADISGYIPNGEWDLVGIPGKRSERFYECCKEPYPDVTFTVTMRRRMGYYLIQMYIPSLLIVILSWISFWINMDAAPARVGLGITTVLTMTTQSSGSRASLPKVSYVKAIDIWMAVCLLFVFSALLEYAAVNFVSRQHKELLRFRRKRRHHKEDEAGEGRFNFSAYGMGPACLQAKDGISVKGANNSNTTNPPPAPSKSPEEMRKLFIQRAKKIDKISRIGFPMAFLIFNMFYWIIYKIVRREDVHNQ
Description: FIGS. 6A and 6B. Positive and negative controls for PSAM-GlyR and PSEM^89S. (a) Schematic of PSAM-GlyR construct with GFP reporter used to make AAV8-hSyn-Flex-PSAM-GlyR. Virus was injected into Tlx3^Cre mice for electrophysiological slice recordings. (b) Electrode impaling a GFP^+ cell (also shown as DI, image) in a transverse slice of the dorsal horn from a Tlx3^Cre mouse injected with AAV8-hSyn-Flex-PSAMGlyR virus. […] (e) Control for the specificity of α-BTX-Alexa647. Contralateral dorsal horn lacks staining for α-BTX-Alexa647. Calretinin (green in original); PKCγ. Scale bar=50 μm. Box indicates area of inset. (f) In mice lacking PSAM-GlyR, mechanical allodynia and heat hypersensitivity induced by the carrageenan pain model are not altered by injection of PSEM^89S (30 mg/kg, i.p.) (p>0.999, n=4) (g) Punctate and dynamic allodynia induced by CFA are also not altered by injection of PSEM^89S (p>0.999, n=6). (h) In the mice lacking PSAM-GlyR, punctate and dynamic allodynia induced by the sural-SNI model are not altered by injection of PSEM^89S (30 mg/kg, i.p.) ([…], n=6). Data are mean±standard error of the mean (SEM). ***P<0.001; ns=not significant (i.e. p>0.05)
Prior to assessing the role of the neurons in somatosensory behavior, the ability of PSAM-GlyR to inhibit excitatory interneurons in the dorsal horn was tested using electrophysiological recordings in spinal cord slices. AAV8-Flex-PSAM-GlyR was injected intraspinally into the dorsal horn of P16 Tlx3^Cre mice. In this mouse line, the recombinase is strictly expressed by excitatory neurons located throughout laminae I-III. Three weeks later, neuronal excitability was measured using patch clamp electrophysiology in spinal cord slices in the presence and absence of PSEM^89S (FIG. 6(a-d)). To identify PSAM-GlyR^+ neurons, we identified cells expressing green fluorescent protein (GFP), which is also encoded by the PSAM-GlyR viral construct (FIG. 6(a,b)). […] We also tested the effect of the ligand PSEM^89S on pain behavior in mice lacking the receptor (FIG. 6(f,h)).

mice lacking PSAM-GlyR = test: Pain models (carrageenan, CFA, sural-SNI) in mice lacking PSAM-GlyR (ligand-alone control); type: in vivo, mouse; conditions: 30 mg/kg i.p.
From the text: Methods. Animals: All animals were kept on a standard 12:12 light/dark cycle in micro-isolator caging racks (Allentown Caging) with food and water provided ad libitum. Mouse strains obtained from Jackson Laboratories include C57Bl/6J (JAX #000664), Calr^Cre (JAX #010774) and CCK^Cre (JAX #012706). Adeno-associated viruses (AAV2/8) used in these experiments: hSyn-Flex-rev-PSAM^L141F-GlyR-IRES-eGFP (7^12 vg/ml) and hSyn-Flex-rev-PSAM^L141F,Y115F-GlyR-IRES-eGFP (1.7^13 vg/ml) were custom made by UNC Vector core based on plasmid material developed by Scott Sternson and provided by Addgene. The hSyn-Flex-rev-PSAM^L141F-GlyR-IRES-eGFP (7^12 vg/ml) was used in all experiments except FIG. 8 (e,f). For these experiments, hSyn-Flex-rev-PSAM^L141F,Y115F-GlyR-IRES-eGFP (1.7^13 vg/ml) was used. Methods including: intra-spinal virus injections, paw withdrawal threshold to von Frey filaments, to cotton swab, Hargreaves, pinprick and acute pain behaviors licking, guarding, flicking are all as previously described (Peirs, C. et al. Dorsal Horn Circuits for Persistent Mechanical Pain. Neuron 87, 797-812 (2015); Seal, R. P. et al. Injury-induced mechanical hypersensitivity requires C-low threshold mechanoreceptors. Nature 462, 651-655, (2009)); For paw withdrawal threshold to pressure: mice were lightly restrained by hand such that their rear legs were allowed to freely hang. Using a Pressure Application Measurement device (Ugo Basile) the hind paw was grasped between the experimenter's forefinger and thumb (with pressure transducer on the thumb), and force was slowly applied to the paw until the mouse struggled or flicked its limb (paw withdrawal threshold, PWT). The final force in grams was recorded. Each mouse was tested on the left and right paw for three trials with a ten-minute inter-trial interval between applications, and the three results averaged for each paw. Injury Models including incision, complete Freund's adjuvant, spared nerve injury tibial and sural models, carrageenan, methylglyoxal and multi-dose streptozotocin are as previously described (Peirs, C. et al. Dorsal Horn Circuits for Persistent Mechanical Pain. Neuron 87, 797-812 (2015); Seal, R. P. et al. Injury-induced mechanical hypersensitivity requires C-low threshold mechanoreceptors. Nature 462, 651-655, (2009); Decosterd, I. and Woolf, C. J. Spared nerve injury: an animal model of persistent peripheral neuropathic pain. Pain 87, 149-158 (2000); Bierhaus, A. et al. Methylglyoxal modification of Nav1.8 facilitates nociceptive neuron firing and causes hyperalgesia in diabetic neuropathy. Nat Med 18, 926-933 (2012); Cavanaugh, D. J. et al. Distinct subsets of unmyelinated primary sensory fibers mediate behavioral responses to noxious thermal and mechanical stimuli. Proc Natl Acad Sci USA 106, 9075-9080, (2009)). Chemogenetic Activation of PSAM-GlyR Receptor: Behavior thresholds were performed as described above in AAV8-hSyn-DIO-PSAM-GlyR-IRES-GFP injected mice. PSEM^89S at 30 mg/kg was injected intraperitoneally 15 minutes prior to testing. Immunohistochemistry was performed as previously described (Peirs, C. et al. Dorsal Horn Circuits for Persistent Mechanical Pain. Neuron 87, 797-812 (2015); Seal, R. P. et al. Injury-induced mechanical hypersensitivity requires C-low threshold mechanoreceptors. Nature 462, 651-655 (2009)). α-bungarotoxin conjugated to Alexa-647 (1:1000; ThermoFisher B35450), α-bungarotoxin conjugated to Alexa-488 (1:1000; ThermoFisher B13422). Imaging: Spinal cord sections were imaged with a confocal laser-scanning microscope (Nikon A1R) and Nikon Elements software using 405-, 488-, 561- and 640 nm excitation laser light. In order to suppress emission crosstalk, the microscope was configured to perform all scanning in sequential mode. Z-series were scanned at 20× magnification with an oil immersion lens and a z-step of 5.0 μm. Quantification and Statistical Analysis: all data are reported as mean±SEM. For acute behaviors, a two-tailed Student's t-test was used. […]

PSAM-GlyR [2] = conditions: Magnus et al. 2011; cited from earlier work

SMILES: COc1ccc(OC)c(C(=O)NC2CN3CCC2CC3)c1 (stereo not shown) [PSEM^89S]
- decrease of membrane potential (PSAM-GlyR [1]; 30 μM PSEM^89S applied to spinal cord slices, GFP^+ neurons, n=3 cells from 2 mice): −7.3±3.4 mV
- action potentials generated by current injection (PSAM-GlyR [1]; 30 μM, GFP^+ cells): completely blocked
- hyperpolarization on bath application (PSAM-GlyR [1]; 30 μM, specifically in GFP-expressing cells): sustained hyperpolarization
- dynamic allodynia induced by the sural-SNI model (mice lacking PSAM-GlyR): not altered
- punctate allodynia induced by the sural-SNI model (mice lacking PSAM-GlyR): not altered
- dynamic allodynia induced by CFA (mice lacking PSAM-GlyR; p>0.999): not altered; also recorded: no effect
- heat hypersensitivity, carrageenan pain model (mice lacking PSAM-GlyR; p>0.999): not altered; also recorded: no effect
- mechanical allodynia, carrageenan pain model (mice lacking PSAM-GlyR; p>0.999): not altered; also recorded: no effect
- punctate allodynia induced by CFA (mice lacking PSAM-GlyR; p>0.999): not altered; also recorded: no effect
- binding to the mutated receptor binding domain (PSAM-GlyR [2]): high affinity
